Each block holds one compound with its values, some of them ahead of it.
What was measured:
[1] = molecular target: T1, Fatty-acid amide hydrolase 1 (Rattus norvegicus, UniProt P97612); assay: Inhibitory constant determined against recombinant Fatty-acid amide hydrolase from rat expressed in Escherichia coli
T1 sequence (P97612 whole entry): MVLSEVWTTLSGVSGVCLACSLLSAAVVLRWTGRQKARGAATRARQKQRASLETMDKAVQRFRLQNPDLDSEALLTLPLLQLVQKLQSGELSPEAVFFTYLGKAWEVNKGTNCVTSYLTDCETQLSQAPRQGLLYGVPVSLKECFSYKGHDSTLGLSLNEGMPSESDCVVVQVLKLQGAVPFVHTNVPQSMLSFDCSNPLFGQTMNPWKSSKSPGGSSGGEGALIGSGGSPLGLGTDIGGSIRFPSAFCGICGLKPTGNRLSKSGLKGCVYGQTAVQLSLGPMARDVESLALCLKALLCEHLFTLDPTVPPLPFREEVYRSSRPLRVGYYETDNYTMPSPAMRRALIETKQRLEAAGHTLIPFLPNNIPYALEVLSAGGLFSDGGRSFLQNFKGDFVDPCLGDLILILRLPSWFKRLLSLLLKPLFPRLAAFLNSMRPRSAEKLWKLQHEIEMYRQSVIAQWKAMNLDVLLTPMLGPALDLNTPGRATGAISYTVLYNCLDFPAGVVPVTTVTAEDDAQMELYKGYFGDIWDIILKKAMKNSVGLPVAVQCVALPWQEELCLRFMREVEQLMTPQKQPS

[2] = Inhibitory concentration against KIAA1363 hydrolase
Liver carboxylesterase 1 = molecular target: T2, Liver carboxylesterase 1 (Homo sapiens, UniProt P23141); assay: Inhibitory concentration against Triacylglycerol hydrolase
T2 sequence (P23141 whole entry): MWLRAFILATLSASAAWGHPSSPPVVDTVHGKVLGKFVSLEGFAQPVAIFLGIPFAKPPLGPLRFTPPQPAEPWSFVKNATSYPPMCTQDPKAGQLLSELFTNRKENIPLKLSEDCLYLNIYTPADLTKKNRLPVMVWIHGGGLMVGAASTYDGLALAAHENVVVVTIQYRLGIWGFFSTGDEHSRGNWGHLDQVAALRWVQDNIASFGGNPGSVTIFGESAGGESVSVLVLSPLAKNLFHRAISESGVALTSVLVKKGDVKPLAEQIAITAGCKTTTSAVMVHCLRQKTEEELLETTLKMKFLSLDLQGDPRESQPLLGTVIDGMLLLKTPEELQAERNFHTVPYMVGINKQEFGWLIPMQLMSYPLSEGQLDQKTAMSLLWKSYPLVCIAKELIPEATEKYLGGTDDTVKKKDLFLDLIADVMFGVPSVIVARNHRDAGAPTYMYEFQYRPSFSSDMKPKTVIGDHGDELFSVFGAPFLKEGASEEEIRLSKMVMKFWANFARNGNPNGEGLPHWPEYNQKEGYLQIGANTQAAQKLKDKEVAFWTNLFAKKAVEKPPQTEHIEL

[3] = molecular target: T3, Fatty-acid amide hydrolase 1 (Homo sapiens, UniProt O00519); assay: Inhibitory concentration against Fatty-acid amide hydrolase
T3 sequence (O00519 whole entry): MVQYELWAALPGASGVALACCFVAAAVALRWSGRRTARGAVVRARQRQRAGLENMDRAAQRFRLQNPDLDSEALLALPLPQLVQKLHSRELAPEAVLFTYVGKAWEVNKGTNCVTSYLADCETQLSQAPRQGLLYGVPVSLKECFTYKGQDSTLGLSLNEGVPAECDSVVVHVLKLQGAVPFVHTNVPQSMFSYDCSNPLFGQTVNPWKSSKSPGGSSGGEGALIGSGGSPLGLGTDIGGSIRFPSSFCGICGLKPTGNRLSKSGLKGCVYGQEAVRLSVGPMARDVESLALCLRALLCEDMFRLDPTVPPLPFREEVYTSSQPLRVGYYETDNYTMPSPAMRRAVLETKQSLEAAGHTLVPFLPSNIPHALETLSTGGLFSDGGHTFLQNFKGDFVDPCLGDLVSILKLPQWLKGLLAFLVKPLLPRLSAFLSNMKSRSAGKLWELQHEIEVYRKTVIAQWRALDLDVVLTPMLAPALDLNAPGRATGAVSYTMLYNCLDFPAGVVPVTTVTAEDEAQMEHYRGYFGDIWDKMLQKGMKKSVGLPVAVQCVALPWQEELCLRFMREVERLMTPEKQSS

[4] = molecular target: T3, Fatty-acid amide hydrolase 1; assay: Inhibitory constant determined against recombinant Fatty-acid amide hydrolase from human expressed in COS-7 cells; format: cell-based

IC50 [2]: > 100 µM
Ki [1]: 10 nM
IC50 (Liver carboxylesterase 1): 30000 nM
IC50 [3]: 20 nM
Compound: CCCCCCCCC#CCCCCCCCC(=O)c1ncc(-c2ccccn2)o1

Ki [1]: 59 nM
Compound: CCCCCCCCCCCCCCCCCC(=O)c1ncc(-c2ccccn2)o1

Ki [1]: 14 nM
Compound: CCCCCCCC/C=C\CCCCCCCC(=O)c1ncc(-c2cccnn2)o1

Ki [1]: 3000 nM
Compound: CCCCC(=O)c1ncc(-c2ccccn2)o1

Ki [1]: 49 nM
Compound: CCCCCCCC(=O)c1ncc(-c2ccccn2)o1

Ki [1]: 22 nM
Compound: O=C(CCCCCCCCCCc1ccccc1)c1ncc(-c2ccccn2)o1

IC50 [2]: 20 µM
Ki [1]: 0.14 nM
IC50 (Liver carboxylesterase 1): 500 nM
IC50 [3]: 2 nM
Compound: CCCCCCCCC#CCCCCCCCC(=O)c1nc2ncccc2o1

Ki [1]: 1300 nM
Compound: C#CCCCCC(=O)c1ncc(-c2ccccn2)o1

Ki [1]: 21 nM
Compound: CCCCCCCCCCCCCCCC(=O)c1ncc(-c2ccccn2)o1

Ki [1]: 13 nM
Compound: CCCCCCCCCCCCCC(=O)c1ncc(-c2ccccn2)o1

Ki [1]: 22 nM
Compound: O=C(CCCCCCc1ccccc1)c1ncc(-c2cncnc2)o1

Ki [1]: 9 nM
Compound: CCCCCCCCCC(=O)c1ncc(-c2ccccn2)o1

Ki [1]: 4.6 nM
Compound: O=C(CCCCCCc1ccccc1)c1ncc(-c2ncco2)o1

Ki [1]: 10 nM
Compound: O=C(CCCCCCCCCc1ccccc1)c1ncc(-c2ccccn2)o1

Ki [1]: 23 nM
Compound: C#CCCCCCCCC(=O)c1ncc(-c2ccccn2)o1

Ki [1]: 7.8 nM
Compound: O=C(CCCCCCCCc1ccccc1)c1ncc(-c2ccccn2)o1

Ki [1]: 21 nM
Compound: O=C(CCCC#Cc1ccccc1)c1ncc(-c2ccccn2)o1

Ki [1]: > 100000 nM
Compound: CCCCCCCC/C=C\CCCCCCCC(=O)c1nc(-c2ccccc2)c(-c2ccccc2)o1

Ki [1]: > 100000 nM
Compound: CC(=O)c1ncc(-c2ccccn2)o1

Ki [1]: 200 nM
Compound: C[Si](C)(C)C#CCCCCC(=O)c1ncc(-c2ccccn2)o1

Ki [1]: 3300 nM
Compound: OC(CCCCCCc1ccccc1)c1ncc(-c2ccccn2)o1 (centres undefined)

IC50 [2]: > 100 µM
Compound: O=C(CCCCCCc1ccccc1)c1ncc(-c2ccccn2)o1

Ki [1]: 5900 nM
Compound: OC(CCCCCCc1ccccc1)c1ncc(-c2ncccn2)o1 (centres undefined)

Ki [1]: 48000 nM
Compound: CCC(=O)c1ncc(-c2ccccn2)o1

Ki [1]: 4300 nM
Compound: OC(CCCCCCc1ccccc1)c1ncc(-c2cccnn2)o1 (centres undefined)

Ki [1]: 7.5 nM
Compound: O=C(CCCCCCCc1ccccc1)c1ncc(-c2ccccn2)o1

Ki [1]: 200 nM
Compound: O=C(CCc1ccccc1)c1ncc(-c2ccccn2)o1

Ki [1]: 5.8 nM
Compound: O=C(CCCCCCc1ccccc1)c1ncc(-c2nccs2)o1

Ki [1]: 2.2 nM
Compound: CCCCCCCCCCCC(=O)c1ncc(-c2ccccn2)o1

Ki [1]: 15 nM
Compound: CCCCCCCCC(=O)c1ncc(-c2ccccn2)o1

Ki [1]: 5.3 nM
Compound: O=C(CCCCCCc1ccccc1)c1ncc(-c2cnccn2)o1

Ki [1]: 2.3 nM
Compound: O=C(CCCCCCc1ccccc1)c1ncc(-c2ccncn2)o1

Ki [1]: 170 nM
Compound: CCCCCCC(=O)c1ncc(-c2ccccn2)o1

Ki [1]: 940 nM
Compound: CCCCCC(=O)c1ncc(-c2ccccn2)o1

Ki [1]: 17000 nM
Compound: O=C(Cc1ccccc1)c1ncc(-c2ccccn2)o1

Ki [1]: 18 nM
Compound: CCCCCCCC/C=C\CCCCCCCC(=O)c1ncc(-c2cnccn2)o1

IC50 [2]: > 100 µM
Compound: O=C(CCCCCc1ccccc1)c1nc2ccccc2o1

Ki [1]: 11 nM
Compound: O=C(CCCCCc1ccccc1)c1ncc(-c2ccccn2)o1

Ki [1]: 3.3 nM
Compound: CCCCCCCCCCC(=O)c1ncc(-c2ccccn2)o1

Ki [1]: 5.6 nM
Compound: O=C(CCCCCCc1ccccc1)c1ncc(-c2cccnn2)o1

Ki [1]: 20000 nM
Compound: c1ccc(CCCCCCCc2ncc(-c3ccccn3)o2)cc1

Ki [1]: 20 nM
Compound: O=C(CCCCC#Cc1ccccc1)c1ncc(-c2ccccn2)o1

IC50 [2]: 20 µM
Ki [1]: 0.28 nM
Compound: O=C(CCCCCCc1ccccc1)c1nc2ncccc2o1

Ki [1]: 33 nM
Compound: O=C(CCCCc1ccccc1)c1ncc(-c2ccccn2)o1

Ki [1]: 4.6 nM
Compound: O=C(CCCCCCc1ccccc1)c1ncc(-c2ncccn2)o1

Ki [1]: 11000 nM
Compound: CCCC(=O)c1ncc(-c2ccccn2)o1

Ki [1]: 120 nM
Compound: O=C(CCCc1ccccc1)c1ncc(-c2ccccn2)o1

Ki [1]: 11 nM
Compound: C=CCCCCCCCC(=O)c1ncc(-c2ccccn2)o1

Ki [1]: 320 nM
Compound: CCCCCCCC/C=C\CCCCCCCC(=O)c1ncc(-c2ccccc2)o1

More lines, now with the values behind:

Compound: CCCCCCCC/C=C\CCCCCCCC(=O)c1nc(C)c(C)o1
Ki [1]: 3800 nM

Compound: CCCCCCCC/C=C\CCCCCCCC(=O)c1nc(-c2ncccn2)co1
Ki [1]: 16 nM

Compound: CCCCCCCC/C=C\CCCCCCCC(=O)c1ncc(-c2ccoc2)o1
Ki [1]: 610 nM

Compound: CCCCCCCC/C=C\CCCCCCCC(=O)c1ncc(-c2ncco2)o1
Ki [1]: 12 nM

Compound: O=C(CCCCCc1ccccc1)c1nc2ncccc2o1
IC50 [2]: 10 µM
Ki [1]: 0.2 nM

Compound: CCCCCCCC/C=C\CCCCCCCC(=O)c1nc(-c2cccnc2)co1
Ki [1]: 41 nM

Compound: CCCCCCCC/C=C\CCCCCCCC(=O)c1ncc(-c2nccn2C)o1
Ki [1]: 47 nM

Compound: CCCCCCCC/C=C\CCCCCCCCc1ncc(-c2ccccn2)o1
Ki [1]: 23200 nM

Compound: CCCCCCCC/C=C\CCCCCCCC(=O)c1ncc(-c2ccncc2)o1
Ki [1]: 56 nM

Compound: CCCCCCCC/C=C\CCCCCCCC(=O)c1nc(-c2ccncn2)co1
Ki [1]: 16 nM

Compound: CCCCCCCC/C=C\CCCCCCCC(=O)c1nc(-c2ccccc2)co1
Ki [1]: 490 nM

Compound: CCCCCCCC/C=C\CCCCCCCC(=O)c1nc(-c2ccncc2)co1
Ki [1]: 78 nM

Compound: CCCCCCCC/C=C\CCCCCCCC(O)c1ncc(-c2ccccn2)o1 (centres undefined)
Ki [1]: 10600 nM

Compound: CCCCCCCC/C=C\CCCCCCCC(=O)c1ncc(-c2nccs2)o1
Ki [1]: 16 nM

Compound: CCCCCCCC/C=C\CCCCCCCC(=O)c1ncc(-c2cccn2C)o1
Ki [1]: 8600 nM

Compound: CCCCCCCC/C=C\CCCCCCCC(=O)c1ncc(-c2ccsc2)o1
Ki [1]: 13200 nM

Compound: CCCCCCCC/C=C\CCCCCCCC(=O)c1ncc(-c2cccs2)o1
Ki [1]: 890 nM

Compound: CCCCCCCC/C=C\CCCCCCCC(=O)c1nc2ccccc2o1
IC50 [2]: > 100 µM
Ki [1]: 370 nM

Compound: O=C(Cc1ccccc1)C(F)(F)F
IC50 [2]: 10 µM
IC50 (Liver carboxylesterase 1): 10 nM
IC50 [3]: > 100000 nM

Compound: O=C(c1ccccc1)C(F)(F)F
IC50 [2]: 10 µM
IC50 (Liver carboxylesterase 1): 4 nM
IC50 [3]: > 100000 nM

Compound: CCCCCCCC/C=C\CCCCCCCC(=O)c1nc2ncccc2o1
IC50 [2]: 60 µM
Ki [1]: 2.3 nM

Compound: CCCCCCCC/C=C\CCCCCCCC(=O)c1nc(-c2ccccn2)co1
Ki [1]: 31 nM

Compound: CCCCCCCC/C=C\CCCCCCCC(=O)c1ncc(-c2cccnc2)o1
Ki [1]: 61 nM

Compound: CCCCCCCC/C=C\CCCCCCCC(=O)c1ncco1
IC50 [2]: > 100 µM
Ki [4]: 45 nM

Compound: O=C(CCCCCc1ccccc1)C(F)(F)F
IC50 [2]: 0.8 µM

Compound: CCCCCCCC/C=C\CCCCCCCC(=O)C(F)(F)F
IC50 [2]: 1.1 µM
Ki [1]: 80 nM
IC50 (Liver carboxylesterase 1): 4800 nM
IC50 [3]: 4500 nM

Compound: CCCCCCCC/C=C\CCCCCCCC(=O)c1ncc(-c2ccccn2)o1
IC50 [2]: > 100 µM
Ki [4]: 10 nM
IC50 (Liver carboxylesterase 1): > 100000 nM
IC50 [3]: 150 nM

Compound: CCCCCCCCCCCCCCCCCC(=O)C(F)(F)F
IC50 [2]: 6.6 µM

Compound: CCCCCCCCCC(=O)C(F)(F)F
IC50 [2]: 0.4 µM

Compound: CCCCCCCCCCCC(=O)C(F)(F)F
IC50 [2]: 0.5 µM
IC50 (Liver carboxylesterase 1): 60 nM

Compound: O=C(CCCCCCc1ccccc1)C(F)(F)F
IC50 [2]: 0.2 µM

Compound: O=C(CCCCCCCc1ccccc1)C(F)(F)F
IC50 [2]: 0.2 µM

Compound: CCCCCCCC(=O)C(F)(F)F
IC50 [2]: 1.5 µM

From ChEMBL document CHEMBL1142723, “Discovery of a potent, selective, and efficacious class of reversible alpha-ketoheterocycle inhibitors of fatty acid amide hydrolase effective as analgesics” (J Med Chem, 2005)
